# Test results published in PubChem BioAssay AID1963825 (Molecular Pharmacology Branch, DTP, NCI, 2024).
# Assay: Anticancer human tumor 997537-175-T-J1-PDC patient-derived colon adenocarcinoma cell line growth inhibition [POLQ]
# Settings: 997537-175-T-J1-PDC complex spheroid viability, combination with POLQ inhibitors; for IC50: curve of first compound; for viability, T/C: stronger effect = lower value
# Procedure, shortened: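 Growth inhibition in 3D: complex spheroids (tumor PDC, HUVEC, MSC) treated with POLQ inhibitor combinations; where Cmax unknown, highest tested concentration 10 microM, except SN-38 at 1 microM.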
# [1] = second compound 0.0316 µM, first compound 0.0316 µM
# [2] = second compound 0.0316 µM, first compound 0.1 µM
# [3] = second compound 0.0316 µM, first compound 0.316 µM
# [4] = second compound 0.0316 µM, first compound 1 µM
# [5] = second compound 0.1 µM, first compound 0.0316 µM
# [6] = second compound 0.1 µM, first compound 0.1 µM
# [7] = second compound 0.1 µM, first compound 0.316 µM
# [8] = second compound 0.1 µM, first compound 1 µM
# [9] = second compound 0.316 µM, first compound 0.0316 µM
# [10] = second compound 0.316 µM, first compound 0.1 µM
# [11] = second compound 0.316 µM, first compound 0.316 µM
# [12] = second compound 0.316 µM, first compound 1 µM
# [13] = second compound 1 µM, first compound 0.0316 µM
# [14] = second compound 1 µM, first compound 0.1 µM
# [15] = second compound 1 µM, first compound 0.316 µM
# [16] = second compound 1 µM, first compound 1 µM
# [17] = second compound 3.16 µM, first compound 0.0316 µM
# [18] = second compound 3.16 µM, first compound 0.1 µM
# [19] = second compound 3.16 µM, first compound 0.316 µM
# [20] = second compound 3.16 µM, first compound 1 µM
# [21] = second compound 10 µM, first compound 0.0316 µM
# [22] = second compound 10 µM, first compound 0.1 µM
# [23] = second compound 10 µM, first compound 0.316 µM
# [24] = second compound 10 µM, first compound 1 µM
# 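Note: luminescence signal used as a surrogate for viable cells; spheroids exposed to drugs for seven days before readout.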
compound,measurement,setting,value
CCc1c2c(nc3ccc(O)cc13)-c1cc3c(c(=O)n1C2)COC(=O)[C@]3(O)CC + Nc1ccc(C#CCN(C(=O)Cc2ncc(C(F)(F)F)cc2C(F)(F)F)c2ccc(F)cc2)nn1,IC50,second compound 0.0316 µM,24.9 nM
same,IC50,second compound 0.1 µM,15.4 nM
same,IC50,second compound 0.316 µM,29.5 nM
same,IC50,second compound 1 µM,20 nM
same,IC50,second compound 3.16 µM,21.9 nM
same,IC50,second compound 10 µM,16.3 nM
same,"viability, T/C","second compound 0.0316 µM, first compound 0.00316 µM",89.5%
same,"viability, T/C","second compound 0.0316 µM, first compound 0.01 µM",91.4%
same,"viability, T/C",[1],39.2%
same,"viability, T/C",[2],19%
same,"viability, T/C",[3],6.65%
same,"viability, T/C",[4],10.3%
same,"viability, T/C","second compound 0.1 µM, first compound 0.00316 µM",89.9%
same,"viability, T/C","second compound 0.1 µM, first compound 0.01 µM",60.1%
same,"viability, T/C",[5],32.7%
same,"viability, T/C",[6],20.1%
same,"viability, T/C",[7],6.93%
same,"viability, T/C",[8],6.26%
same,"viability, T/C","second compound 0.316 µM, first compound 0.00316 µM",79.8%
same,"viability, T/C","second compound 0.316 µM, first compound 0.01 µM",65.1%
same,"viability, T/C",[9],51.6%
same,"viability, T/C",[10],19.6%
same,"viability, T/C",[11],6.57%
same,"viability, T/C",[12],10.8%
same,"viability, T/C","second compound 1 µM, first compound 0.00316 µM",83.5%
same,"viability, T/C","second compound 1 µM, first compound 0.01 µM",70.4%
same,"viability, T/C",[13],33.9%
same,"viability, T/C",[14],22.8%
same,"viability, T/C",[15],5.79%
same,"viability, T/C",[16],5.67%
same,"viability, T/C","second compound 3.16 µM, first compound 0.00316 µM",74.1%
same,"viability, T/C","second compound 3.16 µM, first compound 0.01 µM",66.7%
same,"viability, T/C",[17],42%
same,"viability, T/C",[18],16.7%
same,"viability, T/C",[19],7.19%
same,"viability, T/C",[20],6.33%
same,"viability, T/C","second compound 10 µM, first compound 0.00316 µM",76.5%
same,"viability, T/C","second compound 10 µM, first compound 0.01 µM",65.5%
same,"viability, T/C",[21],29%
same,"viability, T/C",[22],17.8%
same,"viability, T/C",[23],9.23%
same,"viability, T/C",[24],3.78%
COc1cc2cc(C(=O)CCC(=O)O)sc2cc1OC + Nc1ccc(C#CCN(C(=O)Cc2ncc(C(F)(F)F)cc2C(F)(F)F)c2ccc(F)cc2)nn1,IC50,second compound 0.0316 µM,> 10000 nM
same,IC50,second compound 0.1 µM,> 10000 nM
same,IC50,second compound 0.316 µM,> 10000 nM
same,IC50,second compound 1 µM,> 10000 nM
same,IC50,second compound 3.16 µM,> 10000 nM
same,IC50,second compound 10 µM,> 10000 nM
same,"viability, T/C",[1],107%
same,"viability, T/C",[2],107%
same,"viability, T/C",[3],109%
same,"viability, T/C",[4],99.7%
same,"viability, T/C","second compound 0.0316 µM, first compound 3.16 µM",96.8%
same,"viability, T/C","second compound 0.0316 µM, first compound 10 µM",96.7%
same,"viability, T/C",[5],91.2%
same,"viability, T/C",[6],102%
same,"viability, T/C",[7],98.2%
same,"viability, T/C",[8],108%
same,"viability, T/C","second compound 0.1 µM, first compound 3.16 µM",101%
same,"viability, T/C","second compound 0.1 µM, first compound 10 µM",105%
same,"viability, T/C",[9],99.1%
same,"viability, T/C",[10],105%
same,"viability, T/C",[11],109%
same,"viability, T/C",[12],98%
same,"viability, T/C","second compound 0.316 µM, first compound 3.16 µM",91.8%
same,"viability, T/C","second compound 0.316 µM, first compound 10 µM",95.4%
same,"viability, T/C",[13],94.4%
same,"viability, T/C",[14],89.5%
same,"viability, T/C",[15],82%
same,"viability, T/C",[16],105%
same,"viability, T/C","second compound 1 µM, first compound 3.16 µM",96.5%
same,"viability, T/C","second compound 1 µM, first compound 10 µM",89.9%
same,"viability, T/C",[17],105%
same,"viability, T/C",[18],101%
same,"viability, T/C",[19],97.5%
same,"viability, T/C",[20],86.1%
same,"viability, T/C","second compound 3.16 µM, first compound 3.16 µM",100%
same,"viability, T/C","second compound 3.16 µM, first compound 10 µM",92.5%
same,"viability, T/C",[21],101%
same,"viability, T/C",[22],91.4%
same,"viability, T/C",[23],106%
same,"viability, T/C",[24],111%
same,"viability, T/C","second compound 10 µM, first compound 3.16 µM",101%
same,"viability, T/C","second compound 10 µM, first compound 10 µM",107%
